Test results: PMC8557901 (Microbiology Spectrum, 2021)

How the values were obtained:
[1] = tested on: P. falciparum F32-TEM (artemisinin-sensitive); experiment: Standard in vitro chemosensitivity assay (hypoxanthine uptake), F32-TEM; format: cell-based; details: Plasmodium falciparum, F32, 48 h, read-out: Mean EC50 ± SD
Description: The Plasmodium falciparum artemisinin-resistant strain F32-ART5 and its twin artemisinin-sensitive line F32-TEM ([30], [31]) were cultivated at 37°C with 5% CO2 in human red blood cells (EFS [French Blood Bank]) diluted to 2% hematocrit in RPMI 1640 medium supplemented with 5% human serum (EFS) as previously reported ([47]).
In vitro susceptibility of P. falciparum parasites was determined by using the standard hypoxanthine uptake inhibition assay as described previously ([51]) with some modifications ([52]). After D-sorbitol treatment, parasites synchronized at the ring stage were exposed for 48 h, with [^3H]hypoxanthine (Perkin Elmer, France), to a range of concentrations of the different tested compounds. […] Each result represents 3 independent experiments.

[2] = tested on: P. yoelii in mice and Anopheles stephensi; experiment: In vivo transmission-blocking mosquito feeding assay; details: for No. of mosquitoes infected/total no. of mosquitoes (%): untreated 82.8; for No. of oocysts per mosquito: untreated 106; for Mean % parasitemia ± SD: day 4 p.i. in mice prior to mosquito feeding, untreated 0.97 ± 0.17; for Mean % gametocytemia ± SD: day 4 p.i. in mice, untreated 0.05 ± 0.004
Description: Experimental mice were infected by i.p. inoculations of 10^7 erythrocytes parasitized with P. yoelii GOMO 15 to test the effect of M1 following two different protocols of drug treatment. Infected mice were randomly allocated into 6 groups (5 mice per group) corresponding to the 3 conditions (control [solvent], M1 50 mg/kg, and PQ 50 mg/kg) in both drug administration protocols. For the first protocol, mice were treated daily from day zero to day 3, while for the second protocol, treatment was administered only once, 4 days after the infection and 2 h before mosquito feeding ([37]). At day 3 p.i., the presence and maturity of gametocytes was checked by microscopic examination of Giemsa-stained thin blood films and live-blood observation to assess microgamete exflagellation density. Mice were then anesthetized and placed according to the treatment on the top of individual cages containing 100 glucose-starved Anopheles stephensi female mosquitoes, which were allowed to feed for 1 h. Unfed mosquitoes were removed from the cages. Seven days after the infectious blood meal, 30 mosquitoes were dissected and their midguts examined using a phase-contrast microscope (400×) to assess the presence of oocysts. Two weeks after the blood meal, the salivary glands of 30 mosquitos were dissected to estimate the average number of sporozoites per mosquito in each group.

[3] = 50 mg/kg i.p. every day D0 to D3
[4] = 50 mg/kg i.p. on day 3, 2 h before feeding

Cc1ccc(-c2cc3nc(NC(C)(C)C)[nH]c(=O)c3s2)cc1 [Metabolite M1, 2-(tert-Butylamino)-6-(p-tolyl)thieno[3,2-d]pyrimidin-4(3H)-one]
EC50 [1]: 283 ± 125 nM
reduction in parasitemia before mosquito feeding ([2]; 50 mg/kg during D0 to D3, day 4): 50%
No. of mosquitoes infected/total no. of mosquitoes (%) [2, 3]: 25/35 (71.4) %
No. of oocysts per mosquito [2, 3]: 32
No. of mosquitoes infected/total no. of mosquitoes (%) [2, 4]: 13/35 (37.1) %
No. of oocysts per mosquito [2, 4]: 1
Mean % parasitemia ± SD [2, 3]: 0.47 ± 0.24%
Mean % parasitemia ± SD [2, 4]: 0.99 ± 0.34%
Mean % gametocytemia ± SD [2, 3]: 0.04 ± 0.009%
Mean % gametocytemia ± SD [2, 4]: 0.04 ± 0.01%
